Legend:
[1] = DRUGMATRIX: ATPase, Na+/K+ enzyme inhibition (substrate: ATP); format: tissue-based, Sus scrofa, Heart; conditions: Not Active = under 50% inhibition at 10 µM
Substance-K receptor = target: T1, Substance-K receptor (Homo sapiens, UniProt P21452); format: cell membranes, CHO, Membrane; conditions: for Ki: read-out: Ki; as to all read-outs here: in other assays of this panel Not Active means under 50% inhibition at 10 µM
T1 sequence (P21452 whole entry): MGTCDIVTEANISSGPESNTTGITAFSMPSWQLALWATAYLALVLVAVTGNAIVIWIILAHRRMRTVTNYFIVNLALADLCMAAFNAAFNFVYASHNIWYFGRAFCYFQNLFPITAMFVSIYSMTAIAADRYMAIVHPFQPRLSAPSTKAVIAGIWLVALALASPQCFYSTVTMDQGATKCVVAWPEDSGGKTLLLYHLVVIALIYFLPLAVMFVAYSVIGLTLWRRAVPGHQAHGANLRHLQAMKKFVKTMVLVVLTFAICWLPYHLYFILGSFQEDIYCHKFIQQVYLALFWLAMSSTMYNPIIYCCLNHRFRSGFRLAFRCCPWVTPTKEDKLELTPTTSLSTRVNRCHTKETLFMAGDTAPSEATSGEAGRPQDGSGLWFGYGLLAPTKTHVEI

Cytochrome P450 2C19 = Cytochrome P450 2C19 (Homo sapiens, UniProt P33261); conditions: bti-tn-5b1-4; also: in other assays of this panel Not Active means under 50% inhibition at 10 µM
[2] = DRUGMATRIX: Sigma2 radioligand binding (ligand: [3H] Ifenprodil); format: cell membranes, Rattus norvegicus, Wistar, Brain, Membrane; conditions: Not Active = under 50% inhibition at 10 µM
[3] = target: Mitogen-activated protein kinase 14 (Homo sapiens, UniProt Q16539); set-up: species or system Escherichia coli;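 also: inhibition of p38alpha enzyme activity in a biochemical kinase assay, with myelin basic protein serving as substrate; in other assays of this panel Not Active means under 50% inhibition at 10 µM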
[4] = target: Protein kinase C alpha type (Homo sapiens, UniProt P17252); format: cell-based; conditions: sf9;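 also: inhibition of PKCalpha kinase activity measured in an enzyme assay with histone as the phosphorylation substrate; in other assays of this panel Not Active means under 50% inhibition at 10 µM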
Calcitonin receptor = target: T2, Calcitonin receptor (Homo sapiens, UniProt P30988); format: cell membranes, Membrane; conditions: t47d; also: in other assays of this panel Not Active means under 50% inhibition at 10 µM
T2 sequence (P30988 whole entry): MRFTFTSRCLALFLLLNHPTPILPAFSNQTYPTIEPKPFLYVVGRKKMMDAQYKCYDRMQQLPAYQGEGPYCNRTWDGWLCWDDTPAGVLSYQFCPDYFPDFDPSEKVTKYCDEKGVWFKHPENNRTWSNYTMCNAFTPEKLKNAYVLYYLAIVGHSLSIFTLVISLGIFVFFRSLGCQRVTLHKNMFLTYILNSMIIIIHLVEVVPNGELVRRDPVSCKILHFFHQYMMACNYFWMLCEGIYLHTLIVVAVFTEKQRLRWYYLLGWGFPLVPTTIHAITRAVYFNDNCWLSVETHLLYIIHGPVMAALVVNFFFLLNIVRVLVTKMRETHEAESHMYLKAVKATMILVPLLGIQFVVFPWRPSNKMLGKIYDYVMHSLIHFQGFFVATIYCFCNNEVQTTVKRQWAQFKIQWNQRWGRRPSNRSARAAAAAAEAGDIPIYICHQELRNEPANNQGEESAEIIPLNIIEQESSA

Chain of Cytochrome P450 2C19 (P33261 whole entry): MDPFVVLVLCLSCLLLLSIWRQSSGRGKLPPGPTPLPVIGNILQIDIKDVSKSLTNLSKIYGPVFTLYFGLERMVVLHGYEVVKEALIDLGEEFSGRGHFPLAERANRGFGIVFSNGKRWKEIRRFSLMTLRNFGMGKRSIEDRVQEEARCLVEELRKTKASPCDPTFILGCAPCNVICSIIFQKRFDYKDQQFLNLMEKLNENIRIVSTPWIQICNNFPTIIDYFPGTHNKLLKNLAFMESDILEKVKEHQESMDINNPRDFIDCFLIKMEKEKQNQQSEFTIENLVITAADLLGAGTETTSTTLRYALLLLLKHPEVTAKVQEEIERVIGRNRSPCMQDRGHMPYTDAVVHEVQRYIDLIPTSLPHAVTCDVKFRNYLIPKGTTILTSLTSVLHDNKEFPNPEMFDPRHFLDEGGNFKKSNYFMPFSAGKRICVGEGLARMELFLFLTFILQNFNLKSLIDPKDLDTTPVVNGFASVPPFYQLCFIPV
Chain of Mitogen-activated protein kinase 14 (Q16539 whole entry): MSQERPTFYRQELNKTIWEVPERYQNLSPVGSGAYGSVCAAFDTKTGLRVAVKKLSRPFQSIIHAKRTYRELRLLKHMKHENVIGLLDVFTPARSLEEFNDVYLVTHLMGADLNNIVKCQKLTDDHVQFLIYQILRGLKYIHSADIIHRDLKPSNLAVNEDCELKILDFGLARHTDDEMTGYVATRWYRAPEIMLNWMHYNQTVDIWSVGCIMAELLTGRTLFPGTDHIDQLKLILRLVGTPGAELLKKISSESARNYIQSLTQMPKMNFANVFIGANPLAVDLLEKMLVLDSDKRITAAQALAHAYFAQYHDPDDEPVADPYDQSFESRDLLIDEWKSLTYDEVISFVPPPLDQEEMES

SMILES	IC50 [1]	Ki [1]	IC50 (Substance-K receptor; cho)	IC50 (Cytochrome P450 2C19)	Ki (Cytochrome P450 2C19)	IC50 [2]	Ki [2]	IC50 [3]	IC50 [4]	IC50 (Calcitonin receptor)	IC50 (Substance-K receptor; read-out: IC50) [µM]	Ki (Substance-K receptor) [µM]	IC50 ([2]; read-out: IC50) [µM]	Ki ([2]; read-out: Ki) [µM]
COc1nc(C)nc(Cl)c1NC1=NCCN1 [MOXONIDINE]	Not Active	Not Active	Not Active	Not Active	Not Active	Not Active	Not Active	Not Active	Not Active	Not Active	–	–	–	–
N[C@@H](Cc1ccc(O)c(O)c1)C(=O)O [LEVODOPA]	Not Active	Not Active	Not Active	Not Active	Not Active	Not Active	Not Active	Not Active	Not Active	Not Active	–	–	–	–
OCCN(CCO)c1nc(N2CCCCC2)c2nc(N(CCO)CCO)nc(N3CCCCC3)c2n1 [DIPYRIDAMOLE]	Not Active	Not Active	Not Active	Not Active	Not Active	Not Active	Not Active	Not Active	Not Active	Not Active	–	–	–	–
Cn1ccnc1S [METHIMAZOLE]	Not Active	Not Active	Not Active	Not Active	Not Active	Not Active	Not Active	Not Active	Not Active	Not Active	–	–	–	–
CC(=O)[C@@]1(O)CC[C@H]2[C@@H]3C[C@H](C)C4=CC(=O)CC[C@]4(C)[C@H]3CC[C@@]21C	Not Active	Not Active	Not Active	–	–	Not Active	Not Active	Not Active	Not Active	Not Active	–	–	–	–
C=CCC1(C(C)CCC)C(=O)NC(=O)NC1=O (centres undefined) [SECOBARBITAL]	Not Active	Not Active	Not Active	Not Active	Not Active	Not Active	Not Active	Not Active	Not Active	Not Active	–	–	–	–
C[C@@H]1CN(c2c(F)c(N)c3c(=O)c(C(=O)O)cn(C4CC4)c3c2F)C[C@H](C)N1 [SPARFLOXACIN]	Not Active	Not Active	Not Active	Not Active	Not Active	Not Active	Not Active	Not Active	Not Active	Not Active	–	–	–	–
O=c1ncn2nc(Sc3ccc(F)cc3F)ccc2c1-c1c(Cl)cccc1Cl [NEFLAMAPIMOD]	Not Active	Not Active	Not Active	Not Active	Not Active	Not Active	Not Active	–	Not Active	Not Active	–	–	–	–
Nc1c2c(nc3ccccc13)CCCC2 [TACRINE]	Not Active	Not Active	Not Active	Not Active	Not Active	Not Active	Not Active	Not Active	Not Active	Not Active	–	–	–	–
CO[C@H]1/C=C/O[C@@]2(C)Oc3c(C)c(O)c4c(O)c(c(/C=N/N5CCN(C)CC5)c(O)c4c3C2=O)NC(=O)/C(C)=C\C=C\[C@H](C)[C@H](O)[C@@H](C)[C@@H](O)[C@@H](C)[C@H](OC(C)=O)[C@@H]1C [RIFAMPIN]	Not Active	Not Active	Not Active	Not Active	Not Active	Not Active	Not Active	Not Active	Not Active	Not Active	–	–	–	–
CCCCc1oc2ccccc2c1C(=O)c1cc(I)c(OCCN(CC)CC)c(I)c1 [AMIODARONE]	–	–	–	–	–	–	–	Not Active	Not Active	Not Active	19.3	6.44	–	–
CCOC(=O)N1CCC(=C2c3ccc(Cl)cc3CCc3cccnc32)CC1 [LORATADINE]	Not Active	Not Active	Not Active	–	–	Not Active	Not Active	Not Active	Not Active	Not Active	–	–	–	–
N[C@@H](Cc1ccc(N(CCCl)CCCl)cc1)C(=O)O	Not Active	Not Active	Not Active	Not Active	Not Active	Not Active	Not Active	Not Active	Not Active	Not Active	–	–	–	–
Cc1noc(NS(=O)(=O)c2ccc(N)cc2)c1C [SULFISOXAZOLE]	Not Active	Not Active	Not Active	Not Active	Not Active	Not Active	Not Active	Not Active	Not Active	Not Active	–	–	–	–
N[C@@H](Cc1cc(I)c(Oc2ccc(O)c(I)c2)c(I)c1)C(=O)O [LIOTHYRONINE]	–	–	Not Active	Not Active	Not Active	–	–	Not Active	Not Active	Not Active	–	–	–	–
c1ccc([C@H]2CN3CCSC3=N2)cc1 [LEVAMISOLE]	Not Active	Not Active	Not Active	Not Active	Not Active	–	–	Not Active	Not Active	Not Active	–	–	4.39	2.7
CC1(C)O[C@@H]2C[C@H]3[C@@H]4CCC5=CC(=O)C=C[C@]5(C)[C@@]4(F)[C@@H](O)C[C@]3(C)[C@]2(C(=O)CO)O1 [TRIAMCINOLONE ACETONIDE]	Not Active	Not Active	Not Active	Not Active	Not Active	Not Active	Not Active	Not Active	Not Active	Not Active	–	–	–	–
N#CC(C#N)=Cc1ccc(O)c(O)c1 [TYRPHOSTIN 23]	Not Active	Not Active	Not Active	Not Active	Not Active	Not Active	Not Active	Not Active	Not Active	Not Active	–	–	–	–
Nc1nc2nc[nH]c2c(=S)[nH]1 [THIOGUANINE]	Not Active	Not Active	Not Active	Not Active	Not Active	Not Active	Not Active	Not Active	Not Active	Not Active	–	–	–	–
NS(=O)(=O)c1cc2c(cc1Cl)NC(C(Cl)Cl)NS2(=O)=O (centres undefined) [TRICHLORMETHIAZIDE]	Not Active	Not Active	Not Active	Not Active	Not Active	Not Active	Not Active	Not Active	Not Active	Not Active	–	–	–	–
CC(C)N1CCN(c2ccc(OCC3COC(Cn4cncn4)(c4ccc(Cl)cc4Cl)O3)cc2)CC1 (centres undefined) [TERCONAZOLE]	Not Active	Not Active	Not Active	Not Active	Not Active	–	–	Not Active	Not Active	Not Active	–	–	0.317	0.195
CN1CCN(CCCN2c3ccccc3Sc3ccc(Cl)cc32)CC1 [PROCHLORPERAZINE]	–	–	Not Active	Not Active	Not Active	–	–	Not Active	Not Active	Not Active	–	–	–	–
CC/C(=C(\c1ccccc1)c1ccc(OCCN(C)C)cc1)c1ccccc1 [TAMOXIFEN]	–	–	–	Not Active	Not Active	–	–	Not Active	Not Active	Not Active	3.67	1.22	–	–
CC[C@@H](CO)NC(=O)[C@@H]1C=C2c3cccc4[nH]cc(c34)C[C@H]2N(C)C1 [METHYLERGONOVINE]	Not Active	Not Active	Not Active	–	–	Not Active	Not Active	Not Active	Not Active	Not Active	–	–	–	–
Cc1cccc(N(C)C(=S)Oc2ccc3ccccc3c2)c1 [TOLNAFTATE]	Not Active	Not Active	Not Active	–	–	Not Active	Not Active	Not Active	Not Active	Not Active	–	–	–	–
Nc1nc2ccc(OC(F)(F)F)cc2s1 [RILUZOLE]	Not Active	Not Active	Not Active	–	–	Not Active	Not Active	Not Active	Not Active	Not Active	–	–	–	–
Cc1nc2n(c(=O)c1CCN1CCC(c3noc4cc(F)ccc34)CC1)CCCC2 [RISPERIDONE]	–	–	Not Active	Not Active	Not Active	–	–	Not Active	Not Active	Not Active	–	–	–	–

Source: ChEMBL document CHEMBL1909046, “DrugMatrix in vitro pharmacology data”
